Data on two compounds can be found in ChEMBL document CHEMBL5728723, “Pyrimidine compounds and pyrimido indole compounds and methods of use” (2021).

The target in experiment [1] is Epidermal growth factor receptor (Homo sapiens, UniProt P00533). Description: (§1) Kinase Inhibition Assay: Table 9: Compounds 1 and 2, Section D., (see FIG. 4, bottom row, far right column) each inhibit VEGFR-2 and PDGFR-β for antiangiogenic effects and also inhibit human TS (hTS) for cytotoxic effects in single agents.12 The inhibitory potency of both these single agents against VEGFR-2, PDGFR-β, and hTS was better than or close to standards (Tables 9, 10).

For experiment [2], the target named is Platelet-derived growth factor receptor beta (Homo sapiens, UniProt P09619). The experiment is described as §1.
Experiment [3] has as its target Vascular endothelial growth factor receptor 1 (Homo sapiens, UniProt P17948). The description is as §1.
Experiment [4] addresses Vascular endothelial growth factor receptor 2 (Homo sapiens, UniProt P35968). Described as §1.

Molecules are shown by their SMILES.

Chain of Vascular endothelial growth factor receptor 1 (P17948 whole entry): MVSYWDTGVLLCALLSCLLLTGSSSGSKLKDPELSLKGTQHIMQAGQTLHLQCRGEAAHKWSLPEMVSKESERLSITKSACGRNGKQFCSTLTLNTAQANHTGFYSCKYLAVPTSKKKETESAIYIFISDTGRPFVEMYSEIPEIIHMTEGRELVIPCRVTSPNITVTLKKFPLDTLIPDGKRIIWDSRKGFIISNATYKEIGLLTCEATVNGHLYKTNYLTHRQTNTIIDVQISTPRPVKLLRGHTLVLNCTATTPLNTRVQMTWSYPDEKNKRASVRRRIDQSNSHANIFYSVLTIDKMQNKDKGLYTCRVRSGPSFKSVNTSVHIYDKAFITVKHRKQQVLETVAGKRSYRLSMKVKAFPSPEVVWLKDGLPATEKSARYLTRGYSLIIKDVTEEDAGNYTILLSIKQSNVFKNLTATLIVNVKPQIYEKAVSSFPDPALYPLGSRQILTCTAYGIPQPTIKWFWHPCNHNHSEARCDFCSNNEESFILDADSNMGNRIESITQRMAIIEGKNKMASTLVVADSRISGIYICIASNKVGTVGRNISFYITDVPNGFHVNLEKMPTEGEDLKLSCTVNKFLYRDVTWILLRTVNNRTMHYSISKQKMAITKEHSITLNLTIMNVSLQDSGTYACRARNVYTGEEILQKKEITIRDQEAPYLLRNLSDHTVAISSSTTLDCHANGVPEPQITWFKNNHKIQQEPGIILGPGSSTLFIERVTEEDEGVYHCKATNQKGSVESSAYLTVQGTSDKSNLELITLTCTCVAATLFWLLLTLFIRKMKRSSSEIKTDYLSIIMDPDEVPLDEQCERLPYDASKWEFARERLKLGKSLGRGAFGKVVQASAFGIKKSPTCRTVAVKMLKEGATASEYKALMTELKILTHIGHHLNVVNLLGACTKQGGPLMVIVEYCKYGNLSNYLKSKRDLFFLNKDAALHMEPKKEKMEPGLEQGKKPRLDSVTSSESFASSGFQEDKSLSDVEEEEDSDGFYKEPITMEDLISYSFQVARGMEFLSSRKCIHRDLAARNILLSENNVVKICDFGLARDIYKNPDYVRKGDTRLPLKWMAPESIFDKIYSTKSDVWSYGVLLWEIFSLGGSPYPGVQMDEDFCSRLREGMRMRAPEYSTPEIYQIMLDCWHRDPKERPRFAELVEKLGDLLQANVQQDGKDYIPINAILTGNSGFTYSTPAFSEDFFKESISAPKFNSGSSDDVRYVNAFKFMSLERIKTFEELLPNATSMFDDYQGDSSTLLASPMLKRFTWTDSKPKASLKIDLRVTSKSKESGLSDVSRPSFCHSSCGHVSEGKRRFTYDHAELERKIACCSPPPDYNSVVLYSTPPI
Chain of Platelet-derived growth factor receptor beta (P09619 whole entry): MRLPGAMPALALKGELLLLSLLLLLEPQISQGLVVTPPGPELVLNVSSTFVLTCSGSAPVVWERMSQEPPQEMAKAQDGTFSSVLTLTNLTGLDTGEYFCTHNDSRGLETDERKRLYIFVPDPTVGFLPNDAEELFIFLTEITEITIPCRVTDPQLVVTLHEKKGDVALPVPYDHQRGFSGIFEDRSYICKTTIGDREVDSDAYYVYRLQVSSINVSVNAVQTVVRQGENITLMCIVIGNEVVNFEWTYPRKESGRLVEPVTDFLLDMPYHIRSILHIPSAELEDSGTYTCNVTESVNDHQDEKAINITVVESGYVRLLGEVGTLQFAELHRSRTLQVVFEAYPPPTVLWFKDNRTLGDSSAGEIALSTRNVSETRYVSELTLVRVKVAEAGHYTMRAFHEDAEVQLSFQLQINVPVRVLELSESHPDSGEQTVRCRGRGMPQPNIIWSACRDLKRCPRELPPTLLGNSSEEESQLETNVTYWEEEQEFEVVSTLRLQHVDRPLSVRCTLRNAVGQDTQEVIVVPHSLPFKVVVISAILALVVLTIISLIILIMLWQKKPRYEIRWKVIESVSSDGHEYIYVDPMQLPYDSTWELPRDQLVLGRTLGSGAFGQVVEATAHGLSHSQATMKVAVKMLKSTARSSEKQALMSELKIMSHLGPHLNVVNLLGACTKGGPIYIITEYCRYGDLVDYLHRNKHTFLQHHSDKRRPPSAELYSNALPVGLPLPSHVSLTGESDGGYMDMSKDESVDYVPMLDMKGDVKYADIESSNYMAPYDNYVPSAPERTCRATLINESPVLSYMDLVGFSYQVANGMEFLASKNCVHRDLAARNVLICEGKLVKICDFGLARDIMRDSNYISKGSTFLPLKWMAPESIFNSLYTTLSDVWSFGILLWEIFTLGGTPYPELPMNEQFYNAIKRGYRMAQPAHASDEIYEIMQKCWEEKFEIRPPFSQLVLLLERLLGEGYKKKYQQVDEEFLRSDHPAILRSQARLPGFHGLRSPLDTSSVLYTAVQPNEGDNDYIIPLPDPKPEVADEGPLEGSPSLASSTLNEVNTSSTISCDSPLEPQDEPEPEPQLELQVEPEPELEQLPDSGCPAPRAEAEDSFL
Chain of Vascular endothelial growth factor receptor 2 (P35968 whole entry): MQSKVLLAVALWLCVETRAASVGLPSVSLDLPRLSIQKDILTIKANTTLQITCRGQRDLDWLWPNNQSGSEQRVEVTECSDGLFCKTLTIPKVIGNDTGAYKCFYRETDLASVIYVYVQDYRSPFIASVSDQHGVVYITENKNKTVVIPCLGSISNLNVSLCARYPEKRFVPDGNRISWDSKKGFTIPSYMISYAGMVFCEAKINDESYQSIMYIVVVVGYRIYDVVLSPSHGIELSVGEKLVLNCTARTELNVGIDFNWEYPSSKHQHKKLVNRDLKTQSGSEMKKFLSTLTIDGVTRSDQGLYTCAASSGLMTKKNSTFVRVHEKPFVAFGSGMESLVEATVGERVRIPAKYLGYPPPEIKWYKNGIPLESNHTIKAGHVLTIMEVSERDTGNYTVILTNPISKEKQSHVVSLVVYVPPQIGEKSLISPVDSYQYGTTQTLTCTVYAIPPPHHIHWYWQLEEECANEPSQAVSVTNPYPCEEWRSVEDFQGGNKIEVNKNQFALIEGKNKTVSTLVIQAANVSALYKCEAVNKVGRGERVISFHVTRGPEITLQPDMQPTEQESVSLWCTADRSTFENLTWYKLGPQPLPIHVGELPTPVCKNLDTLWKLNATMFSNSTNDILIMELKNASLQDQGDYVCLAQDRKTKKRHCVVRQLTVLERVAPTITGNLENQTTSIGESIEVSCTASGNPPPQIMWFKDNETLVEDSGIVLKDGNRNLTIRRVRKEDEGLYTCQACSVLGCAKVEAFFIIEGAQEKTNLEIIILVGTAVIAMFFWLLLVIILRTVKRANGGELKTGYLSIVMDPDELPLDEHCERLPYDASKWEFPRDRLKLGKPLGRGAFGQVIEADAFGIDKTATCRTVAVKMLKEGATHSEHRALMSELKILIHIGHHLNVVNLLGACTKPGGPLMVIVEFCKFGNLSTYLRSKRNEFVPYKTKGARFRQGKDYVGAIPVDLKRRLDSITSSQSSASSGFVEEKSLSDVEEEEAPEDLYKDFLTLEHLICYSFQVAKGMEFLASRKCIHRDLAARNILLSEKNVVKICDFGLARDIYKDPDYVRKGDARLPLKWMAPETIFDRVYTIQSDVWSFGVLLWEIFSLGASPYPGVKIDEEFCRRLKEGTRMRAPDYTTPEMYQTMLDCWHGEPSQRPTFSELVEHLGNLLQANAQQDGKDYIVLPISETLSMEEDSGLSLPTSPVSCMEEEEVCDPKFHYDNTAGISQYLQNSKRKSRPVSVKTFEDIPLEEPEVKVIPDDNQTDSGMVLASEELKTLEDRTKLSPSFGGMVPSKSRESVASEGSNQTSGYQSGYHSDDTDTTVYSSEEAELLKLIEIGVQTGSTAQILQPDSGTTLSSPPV
Chain of Epidermal growth factor receptor (P00533 whole entry): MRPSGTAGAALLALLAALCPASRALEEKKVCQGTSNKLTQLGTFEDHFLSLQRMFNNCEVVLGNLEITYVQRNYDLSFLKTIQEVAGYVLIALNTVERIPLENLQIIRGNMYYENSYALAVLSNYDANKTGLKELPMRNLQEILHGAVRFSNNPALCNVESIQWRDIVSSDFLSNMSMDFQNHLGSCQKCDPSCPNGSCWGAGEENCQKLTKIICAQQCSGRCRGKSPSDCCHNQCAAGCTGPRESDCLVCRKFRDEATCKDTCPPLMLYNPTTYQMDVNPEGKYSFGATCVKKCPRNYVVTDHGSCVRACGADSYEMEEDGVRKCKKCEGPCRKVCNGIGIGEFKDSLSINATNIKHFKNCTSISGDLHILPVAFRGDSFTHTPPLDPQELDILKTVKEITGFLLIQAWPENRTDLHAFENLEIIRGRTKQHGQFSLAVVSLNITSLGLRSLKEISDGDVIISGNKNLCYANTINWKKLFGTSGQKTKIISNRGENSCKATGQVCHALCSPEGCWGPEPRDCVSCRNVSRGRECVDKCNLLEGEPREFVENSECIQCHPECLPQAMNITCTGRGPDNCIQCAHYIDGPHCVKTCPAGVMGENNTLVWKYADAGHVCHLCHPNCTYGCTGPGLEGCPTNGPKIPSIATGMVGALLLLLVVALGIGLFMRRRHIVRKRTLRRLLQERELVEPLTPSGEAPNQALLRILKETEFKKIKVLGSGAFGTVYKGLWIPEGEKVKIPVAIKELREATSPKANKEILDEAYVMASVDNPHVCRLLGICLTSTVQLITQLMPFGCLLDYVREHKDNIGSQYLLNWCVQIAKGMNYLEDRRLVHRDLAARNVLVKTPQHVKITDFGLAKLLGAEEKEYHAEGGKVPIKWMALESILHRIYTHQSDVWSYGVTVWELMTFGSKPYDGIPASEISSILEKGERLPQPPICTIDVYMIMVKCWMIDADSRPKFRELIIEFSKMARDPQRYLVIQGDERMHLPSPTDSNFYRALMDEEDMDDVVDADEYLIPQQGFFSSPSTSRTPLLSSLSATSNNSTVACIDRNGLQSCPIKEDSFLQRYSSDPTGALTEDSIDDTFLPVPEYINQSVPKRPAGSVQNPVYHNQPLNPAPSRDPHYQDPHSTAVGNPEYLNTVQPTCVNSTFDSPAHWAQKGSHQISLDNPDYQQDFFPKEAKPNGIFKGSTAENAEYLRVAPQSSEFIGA

For `COc1cccc(Sc2sc3nc(N)nc(N)c3c2C)c1`, the half-inhibitory concentration (IC50) (as a rule, the point on the concentration scale where inhibition reaches its midpoint) came to 10.4 µM in experiment [1], 40.3 µM in experiment [2], 160 µM in experiment [3] and 56.3 µM in experiment [4].
With `COc1ccc(Sc2sc3nc(N)nc(N)c3c2C)cc1OC`, the IC50 stood at 2.8 µM in experiment [2], 118 µM in experiment [3] and 22.6 µM in experiment [4].
